SMILES strings stand for the structures. Converted amounts (≈) assume the structure as drawn.

Data set [1] concerns Streptococcus pneumoniae. Nature of the data set: Antimicrobial activity against Streptococcus pneumoniae D39. Format: functional.
Data set [2] can be described thus: Plasma clearance in rat at 3 mg/kg, iv. Format: ADME, organism-based. The arrangement: dose 3 mg/kg, route intravenous.
Data set [3] has as its system Streptococcus pneumoniae. Description: Antibacterial activity against Streptococcus pneumoniae. Format: functional.
Data set [4] in a line: Lipophilicity, log D of the compound. As to conditions: octanol/water.
The nature of data set [5]: Renal clearance in iv dosed rat. Format: ADME, organism-based, Kidney. As to conditions: in vivo.
The nature of data set [6]: Total clearance in iv dosed rat. As to conditions: in vivo. Format: ADME, organism-based.
Data set [7] is described as follows: Fraction unbound in human plasma. Format: ADME, cell-free.
A short description of data set [8]: Oral bioavailability in rat. Format: ADME, organism-based. As to conditions: in vivo.
A further data set concerns Canis familiaris. Nature of the data set: Hepatic blood flow in iv dosed dog. Format: ADME, organism-based, Canis lupus familiaris, Liver. As to conditions: in vivo.
In the next data set the test system is Rattus norvegicus. Nature of the data set: Hepatic blood flow in iv dosed rat. Format: ADME, organism-based, Liver. As to conditions: in vivo.
Data set [9] is described as follows: Solubility of the compound. Format: physicochemical.
Data set [10] is described as follows: Oral bioavailability in dog. Format: ADME, organism-based, Canis lupus familiaris. As to conditions: in vivo.
The nature of data set [11]: Clearance in iv dosed dog. Format: ADME, organism-based, Canis lupus familiaris. As to conditions: in vivo.

With `Nc1nc(OC2CCCC2)nc2c1ncn2[C@@H]1O[C@H](CF)[C@@H](O)[C@H]1O`, 4 µg/mL (≈ 11.3 µM) was the least that counted as inhibitory with Streptococcus pneumoniae [1] (MIC). The clearance (usually the rate of elimination divided by the concentration) in data set [2] was 83 mL/min/kg.
Take `C[C@H]1O[C@@H](n2cnc3c(N)nc(OC4CCCC4)nc32)[C@H](O)[C@@H]1O`: in the data set with Streptococcus pneumoniae [1], the MIC (commonly the lowest concentration that inhibits growth of the organism) came out at 2 µg/mL (≈ 5.96 µM). The same compound came in with a clearance in data set [2] of 43 mL/min/kg.
The compound `Nc1nc(OCC2CCC2)nc2c1ncn2[C@@H]1O[C@H](CF)[C@@H](O)[C@H]1O` showed an MIC in the data set with Streptococcus pneumoniae [1] of 2 µg/mL (≈ 5.66 µM). This compound displayed a clearance in data set [2] of 73 mL/min/kg.
For `C[C@H]1O[C@@H](n2cnc3c(N)nc(O[C@H]4CC[C@H](C)CC4)nc32)[C@H](O)[C@@H]1O` the same measures were 1 µg/mL (≈ 2.75 µM) and 89 mL/min/kg.
Compound `C[C@H]1O[C@@H](n2cnc3c(N)nc(OCC4CC45CC5)nc32)[C@H](O)[C@@H]1O` (some centres not stated) returned an MIC with Streptococcus pneumoniae [1] of 1 µg/mL (≈ 2.88 µM). Besides, in data set [2], the clearance stood at 96 mL/min/kg.
The like results for `C[C@H]1O[C@@H](n2cnc3c(N)nc(OC4C[C@@H]5C[C@@H]5C4)nc32)[C@H](O)[C@@H]1O` (some centres not stated) were, in that order, 2 µg/mL (≈ 5.76 µM) and 50 mL/min/kg.
Turning to `C[C@H]1O[C@@H](n2cnc3c(N)nc(OC4CCOC4)nc32)[C@H](O)[C@@H]1O` (some centres not stated), the minimum inhibitory concentration (MIC) with Streptococcus pneumoniae [3] turned out to be 16 µg/mL (≈ 47.4 µM). In addition, in data set [4], the logD (as a rule, the decadic logarithm of the distribution of all forms, ionised or not, between an organic phase and buffer at a given pH) was -0.06. In data set [5], this compound had a CL renal of 13 mL/min/kg. The compound also registered a clearance in data set [6] of 67 mL/min/kg.
With `Nc1nc(OCC2CC2)nc2c1ncn2[C@@H]1O[C@H](CF)[C@@H](O)[C@H]1O`, the MIC against Streptococcus pneumoniae [3] was 8 µg/mL (≈ 23.6 µM). Besides, the CL renal in [5] worked out at 13 mL/min/kg. In data set [6], this compound registered a clearance of 49 mL/min/kg.
In the data set with Streptococcus pneumoniae [3], `CC1CC1COc1nc(N)c2ncn([C@@H]3O[C@H](CF)[C@@H](O)[C@H]3O)c2n1` (some centres not stated) came in with an MIC of 4 µg/mL (≈ 11.3 µM). The compound also had a CL renal in [5] of 11 mL/min/kg. In data set [6], this compound showed a clearance of 115 mL/min/kg.
Consider `C[C@H]1O[C@@H](n2cnc3c(N)nc(O[C@H]4CC[C@H](C(F)(F)F)CC4)nc32)[C@H](O)[C@@H]1O`, for which the fraction unbound (as a rule, the share of the substance not bound to proteins or other matrix) in data set [7] was determined as 0.2. Further, the results for the bioavailability in data set [8] and in data set [10] were 86% and 88%, respectively. In the data set on Streptococcus pneumoniae [3], this compound gave a minimum inhibitory concentration (MIC) of 2 µg/mL (≈ 4.79 µM). In addition, the QH with Canis familiaris came to 20%; in the data set with Rattus norvegicus, 39%. Also, the solubility (commonly the dissolved amount per volume that the medium holds) in data set [9] was 800 µM (≈ 334 µg/mL). This compound had a log distribution coefficient (logD) in data set [4] of 2.2. Moreover, the values for the clearance in data set [11] and in data set [6] were 7.7 mL/min/kg and 27 mL/min/kg, respectively. The compound also registered a CL renal in [5] of 2 mL/min/kg.
The compound `C[C@H]1O[C@@H](n2cnc3c(N)nc(OC4CCC(F)(F)CC4)nc32)[C@H](O)[C@@H]1O` showed an MIC with Streptococcus pneumoniae [3] of 8 µg/mL (≈ 20.8 µM). The CL renal in data set [5] is 15 mL/min/kg. The same compound had a clearance in [6] of 33 mL/min/kg.
Turning to `C[C@H]1O[C@@H](n2cnc3c(N)nc(OC(C4CC4)C(F)(F)F)nc32)[C@H](O)[C@@H]1O` (some centres not stated), the MIC in the data set with Streptococcus pneumoniae [3] amounted to 8 µg/mL (≈ 20.5 µM). In data set [4], this compound registered a logD of 1.8. The compound also had a CL renal in data set [5] of 5 mL/min/kg. Further, in data set [6], the clearance amounted to 73 mL/min/kg.
Turning to `C[C@H]1O[C@@H](n2cnc3c(N)nc(OCC4CC(F)(F)C4(F)F)nc32)[C@H](O)[C@@H]1O` (some centres not stated), in the data set with Streptococcus pneumoniae [3], the MIC amounted to 4 µg/mL (≈ 9.82 µM). In [4], this compound came in with a logD of 1.4. Besides, the CL renal in data set [5] was 17 mL/min/kg. The same compound yielded a clearance in data set [6] of 85 mL/min/kg.
`C[C@H]1O[C@@H](n2cnc3c(N)nc(OC4CC(F)(F)C4(F)F)nc32)[C@H](O)[C@@H]1O` (some centres not stated) gave an MIC against Streptococcus pneumoniae [3] of 16 µg/mL (≈ 40.7 µM). Besides, the logD in [4] was found to be 1.3. The same compound registered a CL renal in [5] of 16 mL/min/kg. The compound further registered a clearance in [6] of 23 mL/min/kg.
The like results for `C[C@H]1O[C@@H](n2cnc3c(N)nc(OCC4CCC(F)(F)CC4)nc32)[C@H](O)[C@@H]1O` were, in that order, 16 µg/mL (≈ 40.1 µM), 1.7, 8 mL/min/kg and 58 mL/min/kg.

For the origin of these results see ChEMBL document CHEMBL1933055, “Discovery of bacterial NAD⁺-dependent DNA ligase inhibitors: improvements in clearance of adenosine series” (Bioorg Med Chem Lett, 2012).
